Consider 25 compounds from patent US9969709B2, “Guanidinobenzoic acid ester compound” (Takeda Pharmaceutical Company Limited, priority 2013, dated 2018).

One assay deals with ICR mice. The experiment in a line: Test of increase in fecal protein concentration using mice. The format is in vivo, mouse. The conditions noted are these: 5 mg/kg oral, male ICR mice, feces collected 3 to 9 hours after feeding started, control group = 1; for response vs control in vivo at 5 mg/kg: Mus musculus, po, 9 h, read-out: Fecal protein, Folds (vs. control). The procedure: 2. Test of Increase in Fecal Protein Concentration Using Mice
For the experiment, 6-week old male ICR mice were used. The experiment was carried out in five mice per group. After fasting the mice for 15 hours, the control group was forcibly orally administered with a 0.5% methyl cellulose (MC) solution, and the test drug group was forcibly orally administered (5 mg/kg) with a solution or suspension obtained by dissolving or suspending the compound in the 0.5% MC solution. The fasting was stopped immediately thereafter, free feeding (CE-2) was started, and then the feces were collected from after 3 hours to after 9 hours, and weighed. All of the obtained feces were suspended in 6 mL of distilled water, and centrifuged at 1,940×g for 10 minutes. The protein concentration in the obtained supernatant was measured by a Bradford method, and the amount of the protein in 1 g of feces was calculated by dividing the protein concentration in the feces by the total weight of feces. Further, the efficacy was investigated from the ratio to the control group. For the compounds that were evaluated multiple times, the average values were calculated.
The results of the activities with an increase in Fecal Protein, assuming a value for the control group as 1, are shown in Table 2.

For assay [1], the system named is T1, mouse trypsin (m-trypsin).
T1 construct: mouse trypsin (m-trypsin)
The experiment in a line: Trypsin inhibitory activity, mouse trypsin purified from small intestine contents, BZiPAR fluorescent substrate. Particulars: 30 min at room temperature. The format is biochemical. The text has this:
1. Confirmation of Trypsin Inhibitory Activity in Humans and Mice
In the experiment, human recombinant trypsin (rh-trypsin; manufactured by Wako Pure Chemical Industries, Ltd.), cat. #206-17171) and mouse trypsin (m-trypsin; purified from the mouse small intestine contents by the present inventors) were used. The method for purifying m-trypsin from the contents of the mouse small intestine is shown below.
The small intestine contents and the gastrointestinal tract obtained from 10 mice were homogenized in phosphate buffer saline (PBS) using Polytron, and subjected to centrifugation several times at 15,000×g for 10 minutes. The supernatant was mixed at 4° C. for 16 hours with a Benzamidine Sepharose 4 Fast Flow Resin (GE Healthcare: #17-5123-10). After washing the resin with PBS, m-trypsin was eluted with a glycine buffer (pH 3.0) to carry out purification. It was confirmed by Western blot analysis that the obtained purified fraction was recognized as an Anti-mouse Trypsin Antibody (Santa Cruz Biotechnology, Inc.: sc-67388). The method for measuring the trypsin inhibiting activity is shown below.
(§1) The compound was dissolved in dimethyl sulfoxide (DMSO), and diluted to an arbitrary concentration (A). A was 100-fold diluted with a buffer (0.1 M Tris (pH 8.0), 0.15 M NaCl, 10 mM CaCl2, 0.05% Brij35) (B). The rh-trypsin was diluted with a buffer to 0.088 μg/mL, and for the m-trypsin, the purified fraction liquid was 50-fold diluted with the buffer (C). […] A BZiPAR solution (Rhodamine Reference Substrate) which is substrate for the trypsin enzyme was diluted with the buffer to […] (D). 5 μL of B, 5 μL of C, and 10 μL of D were added to a 384-well plate, and incubated at room temperature for 30 minutes. Fluorescent signals were detected at a maximum excitement (Ex)/fluorescent wavelength (Em)=497 nm/520 nm using a Tecan Safire Fluorometer. […] Based on the obtained inhibitory rates, the trypsin inhibitory activities (IC50 values, nM) were calculated from the non-linear regression.

Assay [2] concerns the target T2, human recombinant trypsin (rh-trypsin) (Homo sapiens, UniProt P07477).
T2 construct: purchased Wako Pure Chemical Industries, Ltd. 206-17171
The experiment in a line: Trypsin inhibitory activity, human recombinant trypsin, BZiPAR fluorescent substrate. The format is biochemical. Particulars: 30 min at room temperature, read-out: r-h Trypsin inhibitory activity (IC50). The method, then:
as §1, with “1. Confirmation of Trypsin Inhibitory Activity in Humans and Mice In the experiment, human recombinant trypsin (rh-trypsin; manufactured by Wako Pure Chemical Industries, Ltd.), cat. #206-17171) and mouse trypsin (m-trypsin; purified from the mouse small intestine contents by the present inventors) were used. The method for purifying m-trypsin from the contents of the mouse small intestine is shown below. The compound” for “The compound”

pIC50: −log10 of the molar value. Counter-ions that a name gives are not always drawn.

`N=C(N)Nc1ccc(C(=O)Oc2ccc3c(c2)CCC(C(=O)N(CC(=O)O)Cc2ccc(CC(=O)O)cc2)C3)cc1` (stereo not shown) [Example 20]: the response vs control in vivo at 5 mg/kg in the assay on ICR mice stood at 223%. The pIC50 in assay [1] was 9.11; in assay [2] it was 9.33.

For the compound `N=C(N)Nc1ccc(C(=O)Oc2ccc3cc(C(=O)N[C@@H](Cc4ccc(C(=O)O)cc4)C(=O)O)ccc3c2)cc1` [Example 37], in the assay on ICR mice, the response vs control in vivo at 5 mg/kg is 174%. In addition, the figures for the negative logarithm of the IC50 (pIC50) in assay [1] and in assay [2] were 9.74 and 9.62, respectively.

Take `N=C(N)Nc1ccc(C(=O)Oc2ccc3c(C(=O)N(CC(=O)O)Cc4ccc(CC(=O)O)cc4)csc3c2)cc1` [Example 23]: the response vs control in vivo at 5 mg/kg in the assay with ICR mice came out at 253%. Further, the pIC50 in assay [1] and in assay [2] was 9.34 throughout.

`N=C(N)Nc1ccc(C(=O)Oc2ccc3c(c2)CCC3CC(=O)N(CCC(=O)O)Cc2csc(C(=O)O)c2)cc1` (stereo not shown) [Example 50]: the response vs control in vivo at 5 mg/kg in the assay on ICR mice was 156%. In addition, the results for the negative logarithm of the IC50 (pIC50) in assay [1] and in assay [2] were 9.37 and 9.55, respectively.

`N=C(N)Nc1ccc(C(=O)Oc2ccc3c(c2)CCC3CC(=O)N[C@@H](Cc2ccc(C(=O)O)cc2)C(=O)O)cc1` (stereo partly shown) [Example 53]: in the assay on ICR mice, the response vs control in vivo at 5 mg/kg was determined as 164%. The negative-log IC50 (pIC50) in assay [1] is 9.22; in assay [2] it was 9.27.

With `N=C(N)Nc1ccc(C(=O)Oc2ccc3c(C(=O)N(CC(=O)O)Cc4csc(C(=O)O)c4)cccc3c2)cc1` [Example 57], the response vs control in vivo at 5 mg/kg in the assay with ICR mice was 225%. Besides, the pIC50 is 9.42 in assay [1] and 9.72 in assay [2].

For the compound `N=C(N)Nc1ccc(C(=O)Oc2ccc3cc(C(=O)N(CC(=O)O)Cc4csc(C(=O)O)c4)sc3c2)cc1` [Example 59], the response vs control in vivo at 5 mg/kg in the assay on ICR mice was found to be 164%. Further, the pIC50 in assay [1] is 9.06; in assay [2], 9.15.

On to `N=C(N)Nc1ccc(C(=O)Oc2ccc3c(c2)CCC(C(=O)N(CCC(=O)O)Cc2csc(C(=O)O)c2)C3)cc1` (stereo not shown) [Example 45], for which the response vs control in vivo at 5 mg/kg with ICR mice came out at 138%. Further, the pIC50 is 9.27 in assay [1] and 9.44 in assay [2].

For the compound `N=C(N)Nc1ccc(C(=O)Oc2ccc3c(c2)CCCC3CC(=O)N(CC(=O)O)Cc2csc(CC(=O)O)c2)cc1` (stereo not shown) [Example 38], the response vs control in vivo at 5 mg/kg in the assay on ICR mice was determined as 191%. Besides, the results for the negative-log IC50 (pIC50) in assay [1] and in assay [2] were 9.64 and 9.59, respectively.

Turning to `N=C(N)Nc1ccc(C(=O)Oc2ccc3c(c2)CCC3CC(=O)N(CC(=O)O)Cc2ccc3sc(C(=O)O)cc3c2)cc1` (stereo not shown) [Example 51], the response vs control in vivo at 5 mg/kg in the assay with ICR mice worked out at 166%. The pIC50 in assay [1] was 9.42; in assay [2], 9.47.

Take `N=C(N)Nc1ccc(C(=O)Oc2ccc3c(C(=O)N(CC(=O)O)Cc4csc(C(=O)O)c4)csc3c2)cc1` [Example 13]: the response vs control in vivo at 5 mg/kg in the assay with ICR mice was 273%. Moreover, the figures for the negative-log IC50 (pIC50) in assay [1] and in assay [2] were 9.44 and 9.60, respectively.

`N=C(N)Nc1ccc(C(=O)Oc2ccc3c(c2)CCCC3CC(=O)N[C@@H](Cc2ccc(C(=O)O)cc2)C(=O)O)cc1` (stereo partly shown) [Example 36]: in the assay with ICR mice, the response vs control in vivo at 5 mg/kg came to 190%. Moreover, the values for the pIC50 in assay [1] and in assay [2] were 9.55 and 9.59, respectively.

For the compound `N=C(N)Nc1ccc(C(=O)Oc2ccc3c(C(=O)N[C@@H](Cc4ccc(C(=O)O)cc4)C(=O)O)cccc3c2)cc1` [Example 3, N-{6-[(4-carbamimidamidobenzoyl)oxy]-1-naphthoyl}-4-carboxy-L-phenylalanine monohydrochloride], the response vs control in vivo at 5 mg/kg in the assay with ICR mice came to 209%. Moreover, the pIC50 in assay [1] is 9.66; in assay [2], 9.68.

Regarding `C[C@H](C(=O)O)N(Cc1csc(C(=O)O)c1)C(=O)c1csc2cc(OC(=O)c3ccc(NC(=N)N)cc3)ccc12` [Example 29], in the assay with ICR mice, the response vs control in vivo at 5 mg/kg came to 143%. For the same compound, the negative-log IC50 (pIC50) was 9.64 in assay [1] and 9.59 in assay [2].

As for `N=C(N)Nc1ccc(C(=O)Oc2ccc3c(C(=O)N(CCC(=O)O)Cc4csc(C(=O)O)c4)csc3c2)cc1` [Example 54], in the assay on ICR mice, the response vs control in vivo at 5 mg/kg was 170%. Further, the pIC50 in assay [1] was 9.34; in assay [2], 9.54.

For the compound `N=C(N)Nc1ccc(C(=O)Oc2ccc3c(C(=O)N(CCC(=O)O)Cc4csc(C(=O)O)c4)cccc3c2)cc1` [Example 43], the response vs control in vivo at 5 mg/kg in the assay with ICR mice stood at 198%. The pIC50 in assay [1] is 9.72; in assay [2], 9.77.

Turning to `N=C(N)Nc1ccc(C(=O)Oc2ccc3cc(C(=O)N(CC(=O)O)Cc4ccc(CC(=O)O)cc4)ccc3c2)cc1` [Example 16], the response vs control in vivo at 5 mg/kg in the assay with ICR mice was 239%. Also, the negative logarithm of the IC50 (pIC50) in assay [1] is 9.62; in assay [2], 9.85.

For the compound `N=C(N)Nc1ccc(C(=O)Oc2ccc3c(c2)CCC(C(=O)N(CC(=O)O)[C@@H](Cc2ccccc2)C(=O)O)C3)cc1` (stereo partly shown) [Example 31], the response vs control in vivo at 5 mg/kg in the assay with ICR mice turned out to be 151%. Also, the figures for the negative logarithm of the IC50 (pIC50) in assay [1] and in assay [2] were 9.66 and 9.64, respectively.

In the case of `N=C(N)Nc1ccc(C(=O)Oc2ccc3c(C(=O)N(CC(=O)O)Cc4cccc(C(=O)O)c4)cccc3c2)cc1` [Example 15], the response vs control in vivo at 5 mg/kg with ICR mice was determined as 261%. Besides, the pIC50 in assay [1] is 9.74; in assay [2], 10.00.

`N=C(N)Nc1ccc(C(=O)Oc2ccc3c(c2)CCC(C(=O)N(CC(=O)O)Cc2cccc(C(=O)O)c2)C3)cc1` (stereo not shown) [Example 58]: the response vs control in vivo at 5 mg/kg with ICR mice came to 218%. Moreover, the values for the pIC50 in assay [1] and in assay [2] were 9.13 and 9.17, respectively.

In the case of `C[C@H](C(=O)O)N(Cc1csc(C(=O)O)c1)C(=O)C1CCc2cc(OC(=O)c3ccc(NC(=N)N)cc3)ccc2C1` (stereo partly shown) [Example 21], the response vs control in vivo at 5 mg/kg with ICR mice was 251%. Also, the pIC50 was 9.28 in assay [1] and 9.42 in assay [2].

In the case of `N=C(N)Nc1ccc(C(=O)Oc2ccc3c(C(=O)N[C@@H](Cc4ccc(C(=O)O)cc4)C(=O)O)csc3c2)cc1` [Example 47], the response vs control in vivo at 5 mg/kg with ICR mice stood at 191%. For the same compound, the negative logarithm of the IC50 (pIC50) is 9.54 in assay [1] and 9.59 in assay [2].

In the case of `C[C@H](C(=O)O)N(Cc1csc(C(=O)O)c1)C(=O)CC1CCCc2cc(OC(=O)c3ccc(NC(=N)N)cc3)ccc21` (single isomer, unassigned) [Example 8, 4-({({(1R)-6-[(4-carbamimidamidobenzoyl)oxy]-1,2,3,4-tetrahydronaphthalen-1-yl}acetyl) [(1R)-1-carboxyethyl]amino}methyl)thiophene-2-carboxylic acid or an epimer at position 1 of the 1,2,3,4-tetrahydronaphthalene], in the assay on ICR mice, the “Fecal protein, Folds (vs. control)” value worked out at 1.90. Besides, the pIC50 in assay [1] was 9.24; in assay [2], 9.37.

As for `N=C(N)Nc1ccc(C(=O)Oc2ccc3c(c2)OCC3CC(=O)N(CC(=O)O)Cc2cccc(C(=O)O)c2)cc1` (stereo not shown) [Example 10], the pIC50 in assay [1] is 8.85; in assay [2], 8.92.

In the case of `N=C(N)Nc1ccc(C(=O)Oc2ccc3c(CC(=O)N(CC(=O)O)Cc4cccc(C(=O)O)c4)coc3c2)cc1` [Example 12], the negative-log IC50 (pIC50) in assay [1] was 8.77; in assay [2] it was 8.82.

As a reminder, the pIC50 is the IC50 on a negative log10 scale, so that one unit is a factor of ten.
